The values that follow come from ChEMBL document CHEMBL1781910, “Design, synthesis, and characterization of piperazinedione-based dual protein inhibitors for both farnesyltransferase and geranylgeranyltransferase-I” (Eur J Med Chem, 2011).

Test [1] can be described thus: Inhibition of rat GGTase-1 using geranylgeranyl-pyrophosphate and dansyl-GCVLL as substrate preincubated for 5 mins measured after 15 mins by fluorescence assay.
The nature of test [2]: Inhibition of rat FTase using farnesylpyrophosphate and dansyl-GCVLS as substrate preincubated for 5 mins measured after 15 mins by fluorescence assay.
The species named for test [3] is Rattus norvegicus. The test can be described thus: Bisubstrate inhibition of rat FTase at 20 to 40 nM using farnesylpyrophosphate and dansyl-GCVLS as substrate by double-reciprocal plot analysis.
The species named for test [4] is Rattus norvegicus. Put plainly: Bisubstrate inhibition of rat GGTase-1 at 20 to 40 nM using geranylgeranyl-pyrophosphate and dansyl-GCVLL as substrate by double-reciprocal plot analysis.

Active and inactive are the calls of the source. The calls are words filed in the database; no cut-off is given here.

For orientation: IC50 means the concentration that inhibits the measured activity by half. A higher IC50 goes with weaker potency in that assay. For `COc1ccc(C[C@@H]2C(=O)NCC(=O)N2Cc2ccco2)cc1`, the 50% inhibitory concentration (IC50) in test [1] worked out at 410 nM; in test [2] it was 118 nM.
Taken in the same sequence, the figures for `O=C1NCC(=O)N(Cc2ccc(Oc3cccc(Cl)c3)cc2)[C@H]1Cc1c[nH]c2ccccc12` were 96.5 nM and 26.5 nM.
As for `COc1ccc(CN2C(=O)CNC(=O)[C@@H]2CSCc2ccccc2)cc1`, the IC50 stood at 160 nM in test [1] and 45.1 nM in test [2].
Taken in the same sequence, the figures for `COc1ccc(CN2C(=O)CNC(=O)[C@H]2CSCc2ccccc2)cc1` were 470 nM and 70.7 nM.
The like results for `O=C1NCC(=O)N(Cc2ccco2)[C@H]1Cc1c[nH]c2ccccc12` were, in that order, 790 nM and 72.1 nM.
Take `O=C1NCC(=O)N(Cc2ccc(Oc3cccc(Cl)c3)cc2)[C@@H]1Cc1c[nH]c2ccccc12`: the IC50 was determined as 32.3 nM in test [1] and 17.8 nM in test [2].
Taken in the same sequence, the figures for `O=C1NCC(=O)N(Cc2ccc(Br)cc2)[C@H]1Cc1c[nH]c2ccccc12` were 630 nM and 41.7 nM.
`COc1c(Cl)cc(Cl)cc1CN1C(=O)CNC(=O)[C@H]1Cc1c[nH]c2ccccc12`: the IC50 in test [1] came to 78.2 nM; in test [2], 22.1 nM.
The like results for `COc1ccc(C[C@H]2C(=O)NCC(=O)N2Cc2ccco2)cc1` were, in that order, 1050 nM and 234 nM.
For `O=C1NCC(=O)N(Cc2ccco2)[C@@H]1CSCc1ccccc1`, the IC50 in test [1] is 760 nM; in test [2] it was 99.1 nM.
Taken in the same sequence, the figures for `CC(C)[C@@H]1C(=O)NCC(=O)N1Cc1ccco1` were 1920 nM and 346 nM.
The like results for `COc1ccc(CN2C(=O)CNC(=O)[C@H]2C)cc1` were, in that order, 2830 nM and 621 nM.
As to `O=C1NCC(=O)N(Cc2ccc(F)cc2)[C@@H]1Cc1c[nH]c2ccccc12`, the IC50 turned out to be 480 nM in test [1] and 44.7 nM in test [2].
Taken in the same sequence, the figures for `O=C1NCC(=O)N(Cc2ccc(N3CCOCC3)cc2)[C@@H]1Cc1c[nH]c2ccccc12` were 88.1 nM and 132 nM.
In the case of `C[C@H]1C(=O)NCC(=O)N1Cc1ccco1`, the values for the concentration for half-maximal inhibition (IC50) in test [1] and in test [2] were 5220 nM and 1560 nM, respectively.
The like results for `CSCC[C@H]1C(=O)NCC(=O)N1Cc1ccco1` were, in that order, 1890 nM and 189 nM.
Taken in the same sequence, the figures for `O=C1NCC(=O)N(Cc2ccc(Cl)cc2)[C@H]1Cc1c[nH]c2ccccc12` were 520 nM and 42 nM.
Taken in the same sequence, the figures for `N#Cc1ccc(CN2C(=O)CNC(=O)[C@H]2Cc2c[nH]c3ccccc23)cc1` were 130 nM and 38.7 nM.
In the case of `COc1ccc(C[C@H]2C(=O)NCC(=O)N2Cc2ccc(OC)cc2)cc1`, the concentration for half-maximal inhibition (IC50) in test [1] is 880 nM; in test [2], 188 nM.
Taken in the same sequence, the figures for `COc1ccc(C[C@@H]2C(=O)NCC(=O)N2Cc2ccc(OC)cc2)cc1` were 380 nM and 129 nM.
Consider `CC(C)C[C@H]1C(=O)NCC(=O)N1Cc1ccco1`, for which the IC50 was 3880 nM in test [1] and 476 nM in test [2].
In the case of `CC(C)[C@H]1C(=O)NCC(=O)N1Cc1ccco1`, the figures for the half-inhibitory concentration (IC50) in test [1] and in test [2] were 3200 nM and 541 nM, respectively.
Taken in the same sequence, the figures for `COc1ccc(CN2C(=O)CNC(=O)[C@@H]2Cc2c[nH]c3ccccc23)cc1` were 520 nM and 58.8 nM.
The like results for `O=C1NCC(=O)N(Cc2ccco2)[C@@H]1Cc1c[nH]cn1` were, in that order, 350 nM and 70.6 nM.
With `O=C1NCC(=O)N(Cc2ccc(F)cc2)[C@H]1Cc1c[nH]c2ccccc12`, the figures for the IC50 in test [1] and in test [2] were 770 nM and 78.2 nM, respectively.
Taken in the same sequence, the figures for `C[C@@H]1C(=O)NCC(=O)N1Cc1ccco1` were 3830 nM and 971 nM.
Taken in the same sequence, the figures for `O=C1NCC(=O)N(Cc2ccco2)[C@@H]1Cc1ccccc1` were 620 nM and 177 nM.
Consider `O=C1NCC(=O)N(Cc2ccco2)[C@H]1Cc1c[nH]cn1`, for which the values for the IC50 in test [1] and in test [2] were 980 nM and 97.2 nM, respectively.
On to `O=C1NCC(=O)N(Cc2ccc(N3CCOCC3)cc2)[C@H]1Cc1c[nH]c2ccccc12`, for which the IC50 is 123 nM in test [1] and 225 nM in test [2].
The like results for `O=C1NCC(=O)N(Cc2ccc(Oc3ccc(Cl)c(Cl)c3)cc2)[C@H]1Cc1c[nH]c2ccccc12` were, in that order, 92.3 nM and 22.3 nM.
Turning to `COc1ccc(CN2C(=O)CNC(=O)[C@@H]2C)cc1`, the results for the half-inhibitory concentration (IC50) in test [1] and in test [2] were 5210 nM and 1100 nM, respectively.
With `O=C1NCC(=O)N(Cc2ccco2)[C@H]1CSCc1ccccc1`, the half-inhibitory concentration (IC50) in test [1] stood at 270 nM; in test [2], 68.9 nM.
The like results for `COc1ccc(CN2C(=O)CNC(=O)[C@@H]2Cc2ccccc2)cc1` were, in that order, 1960 nM and 183 nM.
Taken in the same sequence, the figures for `COc1ccc(CN2C(=O)CNC(=O)[C@H]2C(C)C)cc1` were 1700 nM and 479 nM.
With `CSCC[C@@H]1C(=O)NCC(=O)N1Cc1ccco1`, the concentration for half-maximal inhibition (IC50) is 730 nM in test [1] and 121 nM in test [2].
Consider `O=C1NCC(=O)N(Cc2ccc(Oc3ccc(Cl)c(Cl)c3)cc2)[C@@H]1Cc1c[nH]c2ccccc12`, for which the inhibition result in test [3] and in test [4] was “Active” in each case. For the same compound, the results for the IC50 in test [1] and in test [2] were 21 nM and 13.1 nM, respectively.
Take `COc1ccc(CN2C(=O)CNC(=O)[C@H]2CCSC)cc1`: the values for the IC50 in test [1] and in test [2] were 320 nM and 109 nM, respectively.
Taken in the same sequence, the figures for `O=C1NCC(=O)N(Cc2ccco2)[C@H]1Cc1ccccc1` were 1820 nM and 160 nM.
As to `COc1ccc(CN2C(=O)CNC(=O)[C@H]2Cc2c[nH]c3ccccc23)cc1`, the 50% inhibitory concentration (IC50) in test [1] stood at 150 nM; in test [2], 39.8 nM.
The like results for `COc1ccc(CN2C(=O)CNC(=O)[C@@H]2C(C)C)cc1` were, in that order, 3820 nM and 774 nM.
The like results for `COc1ccc(CN2C(=O)CNC(=O)[C@@H]2CC(C)C)cc1` were, in that order, 3920 nM and 582 nM.
As for `COc1ccc(CN2C(=O)CNC(=O)[C@@H]2CCSC)cc1`, the concentration for half-maximal inhibition (IC50) in test [1] came out at 700 nM; in test [2] it was 190 nM.
As to `COc1ccc(CN2C(=O)CNC(=O)[C@H]2Cc2c[nH]cn2)cc1`, the concentration for half-maximal inhibition (IC50) in test [1] was determined as 180 nM; in test [2], 78.5 nM.
Taken in the same sequence, the figures for `O=C1NCC(=O)N(Cc2ccc(Cl)cc2)[C@@H]1Cc1c[nH]c2ccccc12` were 170 nM and 33.1 nM.
Taken in the same sequence, the figures for `CC(C)C[C@@H]1C(=O)NCC(=O)N1Cc1ccco1` were 1660 nM and 421 nM.
Taken in the same sequence, the figures for `O=C1NCC(=O)N(Cc2ccc(Br)cc2)[C@@H]1Cc1c[nH]c2ccccc12` were 120 nM and 29.8 nM.
In the case of `O=C1NCC(=O)N(Cc2ccco2)[C@@H]1Cc1c[nH]c2ccccc12`, the half-inhibitory concentration (IC50) in test [1] is 220 nM; in test [2] it was 52.4 nM.
Taken in the same sequence, the figures for `N#Cc1ccc(CN2C(=O)CNC(=O)[C@@H]2Cc2c[nH]c3ccccc23)cc1` were 320 nM and 43.2 nM.
With `COc1c(Cl)cc(Cl)cc1CN1C(=O)CNC(=O)[C@@H]1Cc1c[nH]c2ccccc12`, the values for the IC50 in test [1] and in test [2] were 219 nM and 34 nM, respectively.
Taken in the same sequence, the figures for `COc1ccc(CN2C(=O)CNC(=O)[C@H]2Cc2ccccc2)cc1` were 460 nM and 142 nM.
Taken in the same sequence, the figures for `COc1ccc(CN2C(=O)CNC(=O)[C@@H]2Cc2c[nH]cn2)cc1` were 590 nM and 107 nM.
The like results for `COc1ccc(CN2C(=O)CNC(=O)[C@H]2CC(C)C)cc1` were, in that order, 1200 nM and 346 nM.
